*1 amine or outer side, *2 acyl side, *3 side chain or, on linkers, in order; H or OH if unused. Where a SMILES comes first, the peptide text is derived from it. Bridges are numbered along the chain shown (N, C = ends). Where no end group is shown, it is not given here. [ ]: non-standard residue; d: D form. The star is where a group is joined. 5FAM = O=C1OC2(c3ccc(O)cc3Oc3cc(O)ccc32)c2ccc(C(=O)*)cc21; Biphenyl(4,4'-CH2)2 = c1cc(-c2ccc(C[*:2])cc2)ccc1C[*:1]; Pro(trans-4-F) = O=C(O)[C@@H]1C[C@@H](F)CN1; Phe(4-Br) = N[C@@H](Cc1ccc(Br)cc1)C(=O)O; Phe(4-Cl) = N[C@@H](Cc1ccc(Cl)cc1)C(=O)O; Phe(4-I) = N[C@@H](Cc1ccc(I)cc1)C(=O)O; Nle = CCCC[C@H](N)C(=O)O; Ahx = NCCCCCC(=O)O
Columns and labels:
[1] = Peptide enzymatic degradation assay, α-chymotrypsin; assay type: in vitro ADME, bovine; conditions: isolated enzyme chymotrypsin; α-chymotrypsin (bovine pancreas), peptide 100 µM, peptide/enzyme molar ratio [P]/[E]= 25, HEPES 25 mM, pH 7.5, 25 °C, 6 hours; RP-HPLC peak area, exponential decay fit; three independent experiments, mean ± SD; SD; read-out: t1/2 in the presence of α-chymotrypsin
Description: into individual aliquots at -20 °C. […]
a concentration of 1 mg mL−1 concentration. The digestion samples were immediately prepared by mixing […]
were then incubated at 25 °C for 6 hours. […]
thermo-shaker for 6 hours. […]
presence of enzyme (t=0). […]
(§1) r = r଴ + A x e భ Eq. (SI - 10)
τ = tଵ ln(2) Eq. (SI - 11)
In all cases, control samples were […]
replicates and error bars indicating the corresponding SD. […]

[2] = target: T1, Aurora-A122-403-C290A/C393A (Homo sapiens, UniProt O14965, C290A/C393A); assay: Competition FA assay against FAM-Ahx-TACC3 522-536 tracer; assay type: binding; conditions: SD; read-out: IC50
T1 construct: Human Aurora-A kinase domain 122-403 wild-type or C290A/ C393A mutant; His tag (pET30TEV vector) (N, cleaved yes); made in house; host or cells: E. coli RIL, co-expressed with lambda phosphatase (Aurora-A); tracer by solid phase synthesis
T1 sequence (O14965 122-403 C290A/C393A): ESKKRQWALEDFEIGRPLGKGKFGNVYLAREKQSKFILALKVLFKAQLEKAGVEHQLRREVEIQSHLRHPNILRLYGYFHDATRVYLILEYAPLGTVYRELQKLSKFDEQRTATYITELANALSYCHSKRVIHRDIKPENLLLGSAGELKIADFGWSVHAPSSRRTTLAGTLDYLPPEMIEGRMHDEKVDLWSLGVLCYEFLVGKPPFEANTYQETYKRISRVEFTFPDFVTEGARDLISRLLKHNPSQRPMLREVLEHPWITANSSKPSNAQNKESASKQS

[3] = target: T1, Aurora-A122-403-C290A/C393A; assay: Isothermal titration calorimetry (ITC); assay type: binding; conditions: ITC as E13
Description: Isothermal titration calorimetry (ITC). ITC experiments were carried out using a MicroCal PEAQ-ITC system (Malvern Panalytical) at 25 °C. A stock solution of Aurora-A 122-403-290A/C393A was dialyzed into ITC buffer overnight (25 mM Tris buffer, pH= 7.5; 150 mM NaCl; 5 mM MgCl2; 5 % v/v glycerol), and the same buffer was employed to resuspend a solid portion of the testing peptides. For each experiment, initially, the cell was filled with 275 µl of Aurora-A122-403-290A/C393A (46 μM) and the syringe was loaded with the corresponding peptide at 1.25 mM concentration. An initial injection of 0.5 μL was then followed by 13 injections of 3 μL, every 150 s, with a constant syringe rotation speed of 750 rpm throughout. The signal for the enthalpy of dilution of each peptide into buffer was independently measured in a control titration experiment and then subtracted from the experimental binding traces. The Kd, ΔG°, ΔH° and -TΔS° values were determined via the MicroCal PEAQ-ITC analysis software (Malvern Paranalytical) using a single-site binding model. […]

[4] = target: T1, Aurora-A122-403-C290A/C393A; assay: Variable-temperature fluorescence anisotropy (VT-FA) Van't Hoff analysis; assay type: binding
Description: Variable-temperature fluorescence anisotropy (VT-FA) Van't Hoff analysis. Variable temperature-fluorescent anisotropy assays were performed in 384-well plates (Greiner Bio-one) with Aurora-A 122-403-290A/C393A protein dialyzed into different assay buffers before use. In this experiment, we prepared five […]
Buffer 1 – 25 mM HEPES, 150 mM NaCl, 5 mM MgCl2, pH= 7.5, Buffer 2 – 25 mM Tris, 150 mM NaCl, 5 mM MgCl2, pH= 7.5, Buffer 3 – 25 mM HEPES, 5 mM MgCl2, pH= 7.5, Buffer 4– 25 mM HEPES, 150 mM NaCl, 5 mM MgCl2, pH= 6.0, Buffer 5– 25 mM HEPES, 150 mM NaCl, 5 mM MgCl2, pH= 8.0, The protein concentration in the first well started at 237 μM in the corresponding buffer, and was diluted over 16 points in a 1/2 dilution regime. The concentration of the labeled peptide was fixed at 50 nM per well. After incubation of the plate at room temperature for 1 h, the plates were read at increasing intervals of 2.5°C, following a minimum period of 5 min equilibration at each temperature. The data was processed as previously described and the ln Ka at each temperature plotted against 1/T (K). The ΔG°, ΔH° and -T*ΔS° were calculated according to Van’t Hoff’s equation (6): […]
as §1
τ = tଵ ln(2) Eq. (SI - 11) […]
Western blots were performed using an anti-Phospho-Thr288

[5] = target: T1, Aurora-A122-403-C290A/C393A; assay: FA direct binding assay (Aurora-A titrated into FAM-Ahx-labelled peptide); set-up: ΔG: unit not given here; conditions: 50 nM fluorescein-labelled peptide; for Kd: Table S6, direct FA titration, Tris buffer pH 7.5, mean ± SD, n = 6, read-out: Kd; for ΔG: Table S6, from direct FA titration, mean ± SD, n = 6
Description: Fluorescence anisotropy (FA) assays – General information.
All assays were performed using 384-well plates(Greiner Bio-one, UK). […]
produced as described previously.11 All samples were prepared in 25 mM Tris,150 mM NaCl, 5 mM MgCl2, […]
(PerkinElmer; Waltham, MA, USA).The parameters were set as follows: Excitation wavelength = 480 nm […]
Measured data were processed and analysed as previously described.12 Specifically, the perpendicular intensity (P) and parallel intensity (S) were subtracted by the control values and used for calculations of intensity and anisotropy using the following Equations 1, 2, 3, 4, and 5:
I= (2PG) + S Eq. (SI − 5)
r = (S − PG) Eq. (SI − 6)
L = r − r௠௜௡ Eq. (SI − 7)
y = (k + x + [FL]) − ඥ(k + x + [FL]2 − 4 ∗ x ∗ [FL]) Eq. (SI − 8)
y = r + r௠௜௡ − r௠௔௫ Eq. (SI − 9)
Where I = total intensity; P = perpendicular intensity; S = parallel intensity; G = instrument factor; r = anisotropy; Lb = ligand bound fraction; λ = change in intensity between bound and unbound states which […]
FA direct binding assays. […]
starting from 700 μM, diluted over 24 points in a 1/2 regime using the FAM-Ahx-labeled peptides at a final fixed concentration of 50 nM per well.

Aurora-A 122-403 = target: T2, Aurora-A 122-403 (Homo sapiens, UniProt O14965); assay: fluorescence anisotropy competition
T2 chain: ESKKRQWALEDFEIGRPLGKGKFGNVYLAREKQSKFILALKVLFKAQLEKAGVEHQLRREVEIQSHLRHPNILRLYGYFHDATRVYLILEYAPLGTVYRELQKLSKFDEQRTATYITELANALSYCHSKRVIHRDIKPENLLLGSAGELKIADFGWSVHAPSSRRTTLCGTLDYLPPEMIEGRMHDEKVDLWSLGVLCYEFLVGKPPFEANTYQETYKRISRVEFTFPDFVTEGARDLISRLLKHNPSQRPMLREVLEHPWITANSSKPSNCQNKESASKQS

[6] = as E43, Buffer 1 – 25 mM HEPES, 150 mM NaCl, 5 mM MgCl2, pH= 7.5
[7] = as E43, Buffer 2 – 25 mM Tris, 150 mM NaCl, 5 mM MgCl2, pH= 7.5
[8] = as E43, Buffer 3 – 25 mM HEPES, 5 mM MgCl2, pH= 7.5
[9] = as E43, Buffer 4 – 25 mM HEPES, 150 mM NaCl, 5 mM MgCl2, pH= 6.0
[10] = as E43, Buffer 5 – 25 mM HEPES, 150 mM NaCl, 5 mM MgCl2, pH= 8.0

## CC(=O)N[C@@H](CC(C)C)C(=O)N[C@@H](CCC(=O)O)C(=O)N[C@@H](CC(C)C)C(=O)N[C@@H](CCCCN)C(=O)N[C@@H](CCC(=O)O)C(=O)N[C@@H](CCC(=O)O)C(=O)N[C@@H](CO)C(=O)N[C@@H](Cc1ccccc1)C(=O)N[C@@H](CCCNC(=N)N)C(=O)N[C@@H](CC(=O)O)C(=O)N1CCC[C@H]1C(=O)N[C@@H](C)C(=O)N[C@@H](CCC(=O)O)C(=O)N[C@H](C(=O)N[C@@H](CC(C)C)C(N)=O)C(C)C [TACC3 518-532]
[1]
  half-life at 100 µM: 32 ± 4 min
[2]
  IC50: 123 ± 6 µM
[3]; N restrained fit, Run 1
  Kd: 30.3 µM
[3]; N restrained fit, Run 2
  Kd: 34.5 µM
[3]; N unrestrained fit, Run 1
  Kd: 46 µM
[3]; N unrestrained fit, Run 2
  Kd: 36.8 µM

## CC(C)C[C@H](NC(=O)[C@@H](NC(=O)[C@H](CCC(=O)O)NC(=O)[C@H](C)NC(=O)[C@@H]1C[C@@H](F)CN1C(=O)[C@H](CC(=O)O)NC(=O)[C@@H]1CSCc2ccc(cc2)-c2ccc(cc2)CSC[C@H](NC(=O)[C@H](CCC(=O)O)NC(=O)[C@H](CC(C)C)NC(=O)CCCCCNC(=O)c2ccc3c(c2)C(=O)OC32c3ccc(O)cc3Oc3cc(O)ccc32)C(=O)N[C@@H](CCCCN)C(=O)N[C@@H](CCC(=O)O)C(=O)N[C@@H](CCC(=O)O)C(=O)N[C@@H](CO)C(=O)N[C@@H](Cc2ccc(I)cc2)C(=O)N1)C(C)C)C(N)=O [FAM-Ahx-TACC3 518-532-L/R-Bph-IF/fP] ({5FAM-Ahx}-LECKEES[Phe(4-I)]CD[Pro(trans-4-F)]AEVL-NH2; linker 3-9 via Biphenyl(4,4'-CH2)2)
[4]; VT-FA Van't Hoff, 50 nM FAM-Ahx tracers, 25-35 °C, constrained minus linear FAM-Ahx-TACC3 518-532, Buffer 1 – 25 mM HEPES, 150 mM NaCl, 5 mM MgCl2, pH= 7.5, triplicate
  ΔΔGConstrained-WT: -4.50 ± 3.6 kJ mol -1
[4]; [6]
  ΔTΔSConstrained-WT: -17.91 ± 2.4 kJ mol -1
  ΔΔHConstrained-WT: 14.18 ± 2.5 kJ mol -1
[4]; [7]
  ΔTΔSConstrained-WT: -17.85 ± 1.6 kJ mol -1
  ΔΔGConstrained-WT: -3.17 ± 2.0 kJ mol -1
  ΔΔHConstrained-WT: 14.67 ± 0.4 kJ mol -1
[4]; [8]
  ΔTΔSConstrained-WT: -22.94 ± 2.9 kJ mol -1
  ΔΔGConstrained-WT: -6.82 ± 5.9 kJ mol -1
  ΔΔHConstrained-WT: 16.12 ± 3.0 kJ mol -1
[4]; [9]
  ΔTΔSConstrained-WT: -11.33 ± 2.0 kJ mol -1
  ΔΔGConstrained-WT: -4.06 ± 4.1 kJ mol -1
  ΔΔHConstrained-WT: 7.27 ± 2.1 kJ mol -1
[4]; [10]
  ΔTΔSConstrained-WT: -13.22 ± 0.9 kJ mol -1
  ΔΔGConstrained-WT: -3.02 ± 1.8 kJ mol -1
  ΔΔHConstrained-WT: 10.19 ± 0.9 kJ mol -1
[5]
  Kd: 1.42 ± 0.24 µM
  ΔG: -33.4 ± 0.5

## CC(C)C[C@H](NC(=O)[C@@H](NC(=O)[C@H](CCC(=O)O)NC(=O)[C@H](C)NC(=O)[C@@H]1C[C@@H](F)CN1C(=O)[C@H](CC(=O)O)NC(=O)[C@@H]1CSCc2ccc(cc2)-c2ccc(cc2)CSC[C@H](NC(=O)[C@H](CCC(=O)O)NC(=O)[C@H](CC(C)C)NC(=O)CCCCCNC(=O)c2ccc3c(c2)C(=O)OC32c3ccc(O)cc3Oc3cc(O)ccc32)C(=O)N[C@@H](CCCCN)C(=O)N[C@@H](CCC(=O)O)C(=O)N[C@@H](CCC(=O)O)C(=O)N[C@@H](CO)C(=O)N[C@@H](Cc2ccc(Br)cc2)C(=O)N1)C(C)C)C(N)=O [FAM-Ahx-TACC3 518-532-L/R-Bph-BrF/fP] ({5FAM-Ahx}-LECKEES[Phe(4-Br)]CD[Pro(trans-4-F)]AEVL-NH2; linker 3-9 via Biphenyl(4,4'-CH2)2)
[5]
  Kd: 1.48 ± 0.16 µM
  ΔG: -33.3 ± 0.3

## EESFRD[cis‑Pro(4-F)]AEVLGTGA [TACC3 cis-(4-F)Pro528 522-536]
Aurora-A 122-403
  IC50: > 200 µM

## LELKEESFRDPAEVL (not fully specified; L520C/R526C biphenyl constraint; Aurora-A C290A+C393A) [TACC3 L/R-Bph 518-532]
Aurora-A 122-403
  IC50: ~30 µM

## EESFRDPAE[Nle]LGTGA [TACC3 V531nL 522-536]
Aurora-A 122-403
  IC50: > 300 µM

## EESFRD[trans‑Pro(4-F)]AEVLGTGA [TACC3 trans-(4-F)Pro528 522-536]
Aurora-A 122-403
  IC50: 60 µM

## EES[Phe(4-Br)]RDPAEVLGTGA [TACC3 (4-Br)Phe525 522-536]
Aurora-A 122-403
  IC50: 34 µM

## EES[Phe(4-Cl)]RDPAEVLGTGA [TACC3 (4-Cl)Phe525 522-536]
Aurora-A 122-403
  IC50: 46 µM

## EESFRDPAEV[Nle]GTGA [TACC3 L532nL 522-536]
Aurora-A 122-403
  IC50: 213 µM

Reference: paper PMC11604048, “Constrained TACC3 peptidomimetics for a non-canonical protein–protein interface elucidate allosteric communication in Aurora-A kinase” (Chemical Science, 2024)
